Where two headings read alike, the source gives them in different places. Some results are limits rather than exact numbers.

This passage reports inhibition results from publication PMC3445516 (PLoS ONE, 2012).

Holding throughout (assay): Ambit kinase profiling, competition binding
The target in one assay is T1, YES (Homo sapiens, UniProt P07947).
T1 construct: purchased Ambit Biosciences (KINOMEscan)
As for the experimental part:
(§1) Also included in the kinase profile are four isoforms of PKC (δ, ε, η, θ) and eight isoforms of CAMKs (CAMKIα, δ, γ; CAMKIIα, β, δ, γ; CAMK4).
(§2) The global kinase profiling experiment was performed by Ambit Biosciences.

A further assay has as its target T2, PLK4 (Homo sapiens, UniProt O00444).
T2 construct: purchased Ambit Biosciences (KINOMEscan)
T2 sequence (O00444 1-970): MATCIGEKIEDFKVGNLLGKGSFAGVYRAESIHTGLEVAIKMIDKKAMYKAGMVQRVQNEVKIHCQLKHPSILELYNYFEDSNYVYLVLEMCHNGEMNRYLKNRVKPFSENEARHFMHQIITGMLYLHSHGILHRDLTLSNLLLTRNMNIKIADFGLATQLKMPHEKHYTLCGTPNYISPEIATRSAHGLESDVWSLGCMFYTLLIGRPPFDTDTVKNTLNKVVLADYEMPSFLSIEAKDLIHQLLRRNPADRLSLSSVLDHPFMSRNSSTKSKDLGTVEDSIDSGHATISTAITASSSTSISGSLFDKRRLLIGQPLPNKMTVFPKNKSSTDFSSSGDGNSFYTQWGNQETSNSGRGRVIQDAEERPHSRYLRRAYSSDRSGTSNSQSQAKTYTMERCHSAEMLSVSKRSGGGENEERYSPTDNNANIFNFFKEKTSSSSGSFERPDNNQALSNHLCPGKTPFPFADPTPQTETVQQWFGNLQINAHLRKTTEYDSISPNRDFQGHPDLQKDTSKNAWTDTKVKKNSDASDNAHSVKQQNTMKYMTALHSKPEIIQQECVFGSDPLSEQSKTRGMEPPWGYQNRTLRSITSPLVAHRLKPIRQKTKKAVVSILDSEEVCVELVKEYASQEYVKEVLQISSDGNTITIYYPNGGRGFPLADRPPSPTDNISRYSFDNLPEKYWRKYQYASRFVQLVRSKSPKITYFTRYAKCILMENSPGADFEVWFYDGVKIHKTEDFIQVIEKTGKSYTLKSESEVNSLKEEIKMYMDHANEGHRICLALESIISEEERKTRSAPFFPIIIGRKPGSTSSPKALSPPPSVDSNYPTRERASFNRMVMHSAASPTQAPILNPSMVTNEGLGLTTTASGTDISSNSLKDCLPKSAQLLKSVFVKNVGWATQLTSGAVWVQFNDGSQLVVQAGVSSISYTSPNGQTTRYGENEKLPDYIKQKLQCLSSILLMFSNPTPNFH
The procedure: as §1, §2

The next assay deals with T3, EPHB4 (Homo sapiens, UniProt P54760).
T3 construct: purchased Ambit Biosciences (KINOMEscan)
T3 sequence (P54760 16-987): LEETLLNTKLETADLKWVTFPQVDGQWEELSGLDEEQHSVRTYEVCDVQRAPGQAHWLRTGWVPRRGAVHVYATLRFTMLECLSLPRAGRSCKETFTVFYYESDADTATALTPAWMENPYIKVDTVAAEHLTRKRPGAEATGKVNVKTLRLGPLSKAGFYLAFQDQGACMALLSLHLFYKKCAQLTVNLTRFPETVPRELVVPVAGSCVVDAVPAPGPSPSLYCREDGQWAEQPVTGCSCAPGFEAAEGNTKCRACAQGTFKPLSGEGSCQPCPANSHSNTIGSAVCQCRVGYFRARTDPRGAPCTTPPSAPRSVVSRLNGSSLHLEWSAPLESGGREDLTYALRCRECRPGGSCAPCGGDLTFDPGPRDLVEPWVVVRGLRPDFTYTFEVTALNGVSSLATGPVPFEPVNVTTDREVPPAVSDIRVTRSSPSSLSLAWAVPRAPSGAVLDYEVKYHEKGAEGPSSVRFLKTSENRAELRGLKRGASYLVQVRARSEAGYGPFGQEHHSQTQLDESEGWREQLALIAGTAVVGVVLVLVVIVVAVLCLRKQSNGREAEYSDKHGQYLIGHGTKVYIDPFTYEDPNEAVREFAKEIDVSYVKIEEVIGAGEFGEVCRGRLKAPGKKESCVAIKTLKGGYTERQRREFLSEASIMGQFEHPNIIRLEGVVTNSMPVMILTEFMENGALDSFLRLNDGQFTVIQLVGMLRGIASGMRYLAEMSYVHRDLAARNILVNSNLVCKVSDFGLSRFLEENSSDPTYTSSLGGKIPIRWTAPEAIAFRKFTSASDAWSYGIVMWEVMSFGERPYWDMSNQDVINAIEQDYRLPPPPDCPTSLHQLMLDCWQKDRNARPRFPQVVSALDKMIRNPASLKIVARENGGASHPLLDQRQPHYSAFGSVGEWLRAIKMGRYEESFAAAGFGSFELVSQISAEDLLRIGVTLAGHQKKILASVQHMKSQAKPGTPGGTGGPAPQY
The procedure: as §1, §2

The target of the next assay is T4, RET(M918T) (Homo sapiens, UniProt P07949, M918T).
T4 construct: purchased Ambit Biosciences (KINOMEscan)
As for the experimental part:
as §1, §2

T1 sequence (P07947 whole entry): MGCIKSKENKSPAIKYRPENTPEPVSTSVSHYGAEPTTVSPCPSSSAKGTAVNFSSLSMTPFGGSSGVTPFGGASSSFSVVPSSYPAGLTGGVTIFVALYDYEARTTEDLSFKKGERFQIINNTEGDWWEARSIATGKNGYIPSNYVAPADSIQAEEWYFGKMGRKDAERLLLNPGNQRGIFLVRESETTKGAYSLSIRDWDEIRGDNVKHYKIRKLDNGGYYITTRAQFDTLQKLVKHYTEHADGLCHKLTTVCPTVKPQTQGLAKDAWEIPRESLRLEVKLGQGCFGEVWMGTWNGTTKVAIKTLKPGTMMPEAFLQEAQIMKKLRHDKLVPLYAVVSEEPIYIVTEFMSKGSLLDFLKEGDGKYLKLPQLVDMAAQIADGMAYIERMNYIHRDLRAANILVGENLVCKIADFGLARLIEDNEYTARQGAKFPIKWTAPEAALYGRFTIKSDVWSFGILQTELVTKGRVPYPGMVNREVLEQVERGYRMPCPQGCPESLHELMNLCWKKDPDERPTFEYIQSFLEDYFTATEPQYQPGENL
T4 sequence (P07949 29-1114 M918T): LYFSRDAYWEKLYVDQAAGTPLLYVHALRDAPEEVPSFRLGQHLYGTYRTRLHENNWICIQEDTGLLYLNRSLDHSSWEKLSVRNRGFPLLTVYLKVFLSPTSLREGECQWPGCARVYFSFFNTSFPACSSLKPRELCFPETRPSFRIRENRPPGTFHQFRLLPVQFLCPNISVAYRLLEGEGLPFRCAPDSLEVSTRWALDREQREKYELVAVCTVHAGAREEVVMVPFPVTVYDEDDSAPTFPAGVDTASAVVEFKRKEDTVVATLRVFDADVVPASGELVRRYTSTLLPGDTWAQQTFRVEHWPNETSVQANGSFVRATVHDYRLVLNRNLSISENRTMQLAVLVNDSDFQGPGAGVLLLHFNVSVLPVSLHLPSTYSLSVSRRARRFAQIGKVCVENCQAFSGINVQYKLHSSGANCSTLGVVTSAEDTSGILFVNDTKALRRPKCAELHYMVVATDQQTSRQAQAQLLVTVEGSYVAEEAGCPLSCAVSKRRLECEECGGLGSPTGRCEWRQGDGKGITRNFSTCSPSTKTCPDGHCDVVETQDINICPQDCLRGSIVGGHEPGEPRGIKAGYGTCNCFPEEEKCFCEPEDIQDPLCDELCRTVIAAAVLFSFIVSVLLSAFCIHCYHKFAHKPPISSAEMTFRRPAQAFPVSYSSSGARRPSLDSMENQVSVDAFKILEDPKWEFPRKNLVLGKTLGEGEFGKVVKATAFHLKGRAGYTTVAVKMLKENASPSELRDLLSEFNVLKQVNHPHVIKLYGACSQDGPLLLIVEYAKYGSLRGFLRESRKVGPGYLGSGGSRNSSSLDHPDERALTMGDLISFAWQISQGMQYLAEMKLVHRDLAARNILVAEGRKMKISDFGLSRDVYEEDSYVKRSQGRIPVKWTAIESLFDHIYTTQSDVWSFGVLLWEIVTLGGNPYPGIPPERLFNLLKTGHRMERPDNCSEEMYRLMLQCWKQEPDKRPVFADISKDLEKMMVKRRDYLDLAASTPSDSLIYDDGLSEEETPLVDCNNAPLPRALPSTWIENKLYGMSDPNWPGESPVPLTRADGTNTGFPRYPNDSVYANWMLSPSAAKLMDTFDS

`Fc1ccc(-c2c(-c3ccncc3)[nH]c3nccnc23)cc1` [Compound 122]: the inhibition at 10 µM on YES (YES, 10 µM, read-out: % Competition) turned out to be 73%; at PLK4 (PLK4, 10 µM, read-out: % Competition), 98%; on EPHB4 (EPHB4, 10 µM, read-out: % Competition) it was 72%; on RET(M918T) (RET(M918T), 10 µM, read-out: % Competition), 68%.

Consider `Fc1ccc(-c2c(-c3ccncc3)[nH]c3nccnc23)cc1` [RO1155697-000-005], for which the inhibition at 10 µM is 73% on YES (YES, compound concentration 10 uM, read-out: Percent Competition); 98% on PLK4 (PLK4, compound concentration 10 uM, read-out: Percent Competition); 72% at EPHB4 (EPHB4, compound concentration 10 uM, read-out: Percent Competition); 68% at RET(M918T) (RET(M918T), compound concentration 10 uM, read-out: Percent Competition).

For `CC(O)CNc1cc(-c2[nH]c3cccnc3c2-c2ccc(F)cc2)ccn1` (stereo not drawn) [Compound 140], the inhibition at 10 µM on YES (read-out: % Competition), on PLK4 (read-out: % Competition), on EPHB4 (read-out: % Competition) and at RET(M918T) (read-out: % Competition) was under 50% each time.
